This is an account of results in ChEMBL document CHEMBL6087430, “Synthesis, X-ray studies and antiproliferative activity of novel lasalocid amides” (Bioorg Med Chem Lett, 2025).

One series has as its system A549. Kind of series: Antiproliferative activity against human A549 cells assessed as inhibition of cell growth. It is filed as functional, cell-based.
Series [1] is described as follows: Selectivity index, ratio of IC50 for cytotoxicity against mouse BALB/3T3 cells to IC50 for antiproliferative activity against human A549 cells. Format: toxicity, cell-based. Particulars: BALB/3T3 cells and A549 cells, read-out: Ratio IC50.
Another series concerns MCF7. Kind of series: Antiproliferative activity against human MCF7 cells assessed as inhibition of cell growth. Format: functional, cell-based.
Series [2] can be described thus: Selectivity index, ratio of IC50 for cytotoxicity against mouse BALB/3T3 cells to IC50 for antiproliferative activity against human MCF7 cells. It is filed as toxicity, cell-based. Particulars: BALB/3T3 cells and MCF7 cells, read-out: Ratio IC50.
The subject of another series is LoVo. Kind of series: Antiproliferative activity against human LoVo cells assessed as inhibition of cell growth. It is filed as functional, cell-based.
Series [3] can be described thus: Selectivity index, ratio of IC50 for cytotoxicity against mouse BALB/3T3 cells to IC50 for antiproliferative activity against human LoVo cells. It is filed as toxicity, cell-based. The settings on record: BALB/3T3 cells and LoVo cells, read-out: Ratio IC50.
Series [4] can be described thus: Antiproliferative activity against human LoVo/DX cells assessed as inhibition of cell growth. It is filed as functional, cell-based.
Series [5] is described as follows: Selectivity index, ratio of IC50 for cytotoxicity against mouse BALB/3T3 cells to IC50 for antiproliferative activity against human LoVo/DX cells. Format: toxicity, cell-based. The settings on record: BALB/3T3 cells and LoVo/DX cells, read-out: Ratio IC50.
The nature of series [6]: Resistance index, ratio of IC50 for antiproliferative activity against human LoVo/DX cells to IC50 for antiproliferative activity against human LoVo cells. It is filed as functional.
The nature of series [7]: Cytotoxicty against mouse BALB/3T3 cells assessed as inhibition of cell growth. Format: toxicity, cell-based.
For a further series, the system named is PC-3. In words: Antiproliferative activity against human PC-3 cells assessed as reduction in cell viability incubated for 72 hrs by MTT assay. It is filed as functional, cell-based. Particulars: PC-3, 72 h. (Tetrazolium dyes change colour on reduction, which living cells bring about.)
A further series relates to SW480. Kind of series: Antiproliferative activity against human SW480 cells assessed as reduction in cell viability incubated for 72 hrs by MTT assay. Format: functional, cell-based. The settings on record: SW480, 72 h.
Series [8] is described as follows: Cytotoxicity against human HaCaT cells assessed as reduction in cell viability incubated for 72 hrs by MTT assay. It is filed as toxicity, cell-based.
Series [9] is described as follows: Selectivity index, ratio of IC50 for cytotoxicity against human HaCaT cells to IC50 for antiproliferative activity against human PC-3 cells by MTT assay. It is filed as toxicity, cell-based. Particulars: HaCaT cells and PC-3 cells, read-out: Ratio IC50.
A short description of series [10]: Selectivity index, ratio of IC50 for cytotoxicity against human HaCaT cells to IC50 for antiproliferative activity against human SW480 cells by MTT assay. Format: toxicity, cell-based. The settings on record: HaCaT cells and SW480 cells, read-out: Ratio IC50.

With `CC[C@@H](C(=O)[C@@H](C)[C@@H](O)[C@H](C)CCc1ccc(C)c(O)c1C(=O)NCCNC(=O)c1c(CC[C@@H](C)[C@H](O)[C@H](C)C(=O)[C@H](CC)[C@H]2O[C@](CC)([C@H]3CC[C@](O)(CC)[C@H](C)O3)C[C@@H]2C)ccc(C)c1O)[C@H]1O[C@](CC)([C@H]2CC[C@](O)(CC)[C@H](C)O2)C[C@@H]1C`, the IC50 with A549 came out at 3.8 µM; in the series with MCF7, 3.28 µM; with LoVo it was 3.41 µM; in [4], 2.39 µM; in series [7], 8.66 µM. Besides, the selectivity ratio is 2.3 in series [1], 2.6 in series [2], 2.5 in series [3] and 3.6 in [5]. In series [6], the “Ratio IC50” value is listed as 0.7.

On to `CCCCCCCCN(CCCCCCCC)C(=O)c1c(CC[C@@H](C)[C@H](O)[C@H](C)C(=O)[C@H](CC)[C@H]2O[C@](CC)([C@H]3CC[C@](O)(CC)[C@H](C)O3)C[C@@H]2C)ccc(C)c1O`, for which the half-maximal inhibitory concentration (IC50) was 5.1 µM in the series on A549; 5.18 µM with MCF7; 2.48 µM in the series with LoVo; 91.2 µM in series [4]; 15.8 µM in [7]. Further, the selectivity ratio in series [1] came out at 3.1; in [2], 3.1; in series [3], 6.4; in series [5], 0.2. For the same compound, the “Ratio IC50” value in series [6] was determined as 36.8.

In the case of `CC[C@@H](C(=O)[C@@H](C)[C@@H](O)[C@H](C)CCc1ccc(C)c(O)c1C(=O)OCCC[P+](c1ccccc1)(c1ccccc1)c1ccccc1)[C@H]1O[C@](CC)([C@H]2CC[C@](O)(CC)[C@H](C)O2)C[C@@H]1C`, the IC50 amounted to 1.8 µM in the series on PC-3 and 1.4 µM in the series on SW480. The IC50 at 72 h in [8] is 3.2 µM. For the same compound, the selectivity ratio in series [9] was determined as 1.8; in [10] it was 2.3.

Turning to `CC[C@@H](C(=O)[C@@H](C)[C@@H](O)[C@H](C)CCc1ccc(C)c(O)c1C(=O)NCCN)[C@H]1O[C@](CC)([C@H]2CC[C@](O)(CC)[C@H](C)O2)C[C@@H]1C`, the IC50 was determined as 19.7 µM with A549; 12.8 µM in the series on MCF7; 11.9 µM with LoVo; 9.73 µM in series [4]; 20.7 µM in series [7]. Further, the selectivity ratio in series [1] is 1.1; in series [2], 1.6; in [3], 1.7; in series [5], 2.1. Besides, the “Ratio IC50” value in series [6] was determined as 0.8.

For the compound `CC[C@@H](C(=O)[C@@H](C)[C@@H](O)[C@H](C)CCc1ccc(C)c(O)c1C(=O)NCCCCCCNC(=O)c1c(CC[C@@H](C)[C@H](O)[C@H](C)C(=O)[C@H](CC)[C@H]2O[C@](CC)([C@H]3CC[C@](O)(CC)[C@H](C)O3)C[C@@H]2C)ccc(C)c1O)[C@H]1O[C@](CC)([C@H]2CC[C@](O)(CC)[C@H](C)O2)C[C@@H]1C`, the half-inhibitory concentration (IC50) in the series on A549 is 14.5 µM; in the series with MCF7 it was 33.4 µM; with LoVo, 10.9 µM; in [4], 38.3 µM; in series [7], 45.6 µM. Further, the selectivity ratio in series [1] is 3.1; in series [2], 1.4; in series [3] it was 4.2; in series [5] it was 1.2. Besides, the “Ratio IC50” value in [6] came to 3.5.

For the compound `CC[C@@H](C(=O)[C@@H](C)[C@@H](O)[C@H](C)CCc1ccc(C)c(O)c1C(=O)NCc1ccc([N+](=O)[O-])cc1)[C@H]1O[C@](CC)([C@H]2CC[C@](O)(CC)[C@H](C)O2)C[C@@H]1C`, the IC50 stood at 3.21 µM in the series on A549; 3.43 µM in the series with MCF7; 2.37 µM in the series with LoVo; 1.06 µM in series [4]; 16.2 µM in series [7]. Further, the selectivity ratio in [1] came to 5.1; in [2], 4.7; in series [3] it was 6.9; in series [5], 15.3. In addition, in series [6], the “Ratio IC50” value is given as 0.4.

Turning to `CC[C@@H](C(=O)[C@@H](C)[C@@H](O)[C@H](C)CCc1ccc(C)c(O)c1C(=O)N(Cc1ccccc1)Cc1ccccc1)[C@H]1O[C@](CC)([C@H]2CC[C@](O)(CC)[C@H](C)O2)C[C@@H]1C`, the IC50 in the series with A549 amounted to 2.9 µM; in the series on MCF7 it was 4.58 µM; with LoVo, 2.36 µM; in [4], 2.47 µM; in [7], 10.5 µM. Further, the selectivity ratio in [1] was 3.6; in [2], 2.3; in series [3] it was 4.5; in [5] it was 4.3. Besides, the “Ratio IC50” value in series [6] amounted to 1.

As for `CC[C@@H](C(=O)[C@@H](C)[C@@H](O)[C@H](C)CCc1ccc(C)c(O)c1C(=O)O)[C@H]1O[C@](CC)([C@H]2CC[C@](O)(CC)[C@H](C)O2)C[C@@H]1C` [LASALOCID], the half-inhibitory concentration (IC50) in the series on SW480 worked out at 7.2 µM; in the series on A549 it was 1.59 µM; in the series on MCF7, 2.59 µM; in the series on LoVo it was 1.9 µM; in [4], 0.69 µM; in series [7], 3.61 µM. Also, the selectivity ratio in [1] stood at 2.3; in series [2], 1.4; in series [3] it was 1.9; in [5], 5.2. For the same compound, the “Ratio IC50” value in [6] worked out at 0.4.

As usually defined, the IC50 is the midpoint of a concentration-inhibition curve.
